Laboratory results published in ChEMBL document CHEMBL3639125, “1,4-oxazepines as BACE1 and/or BACE2 inhibitors” (2014).

Key:
Beta-secretase 1 = Beta-secretase 1 (Homo sapiens, UniProt P56817); test: Immunofluorescence Resonance Energy Transfer (FRET) Assay: The FRET assay was performed essentially as described in Gruninger-Leitch et al., Journal of Biological Chemistry (2002) 277(7) 4687-93 (Substrate and inhibitor profile of BACE (beta-secretase) and comparison with other mammalian aspartic proteases). In summary, a peptide is designed that is cleaved by the protease. The peptide is labelled with dabcyl at the N terminus and Lucifer Yellow at the C-terminus, such that for an intact peptide the Lucifer Yellow fluorescence is quenched by the dabcyl. When the peptide is cut by BACE2, the quenching is removed and a fluorescent signal is generated. The assay was performed as described in Grueninger et al. 2002 at pH 4.5 using a substrate concentration of 5 μM. A FRET peptide based on the TMEM27 sequence was devised. dabcyl-QTLEFLKIPS-LucY (SEQ ID NO: 1). […] Conversely, BACE1 had insignificant activity against this peptide.
Beta-secretase 2 = molecular target: T1, Beta-secretase 2 (Homo sapiens, UniProt Q9Y5Z0); test: In summary, a peptide is designed that is cleaved by the protease. The peptide is labelled with dabcyl at the N terminus and Lucifer Yellow at the C-terminus, such that for an intact peptide the Lucifer Yellow fluorescence is quenched by the dabcyl. When the peptide is cut by BACE2, the quenching is removed and a fluorescent signal is generated.
T1 sequence (Q9Y5Z0 whole entry): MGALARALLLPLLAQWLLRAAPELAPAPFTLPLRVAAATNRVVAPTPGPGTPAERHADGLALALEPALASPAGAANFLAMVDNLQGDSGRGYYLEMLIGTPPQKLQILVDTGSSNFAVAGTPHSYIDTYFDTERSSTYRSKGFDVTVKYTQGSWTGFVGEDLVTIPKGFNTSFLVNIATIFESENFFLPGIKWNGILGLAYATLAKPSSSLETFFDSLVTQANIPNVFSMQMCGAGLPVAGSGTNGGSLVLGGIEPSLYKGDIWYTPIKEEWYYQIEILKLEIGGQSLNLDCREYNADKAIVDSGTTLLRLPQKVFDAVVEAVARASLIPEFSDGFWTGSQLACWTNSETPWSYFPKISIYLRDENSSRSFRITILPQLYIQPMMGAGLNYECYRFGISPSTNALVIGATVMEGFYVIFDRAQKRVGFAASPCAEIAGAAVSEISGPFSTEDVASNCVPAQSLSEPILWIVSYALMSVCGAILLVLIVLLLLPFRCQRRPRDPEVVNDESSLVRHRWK

Beta-secretase 1, sequence (P56817 whole entry): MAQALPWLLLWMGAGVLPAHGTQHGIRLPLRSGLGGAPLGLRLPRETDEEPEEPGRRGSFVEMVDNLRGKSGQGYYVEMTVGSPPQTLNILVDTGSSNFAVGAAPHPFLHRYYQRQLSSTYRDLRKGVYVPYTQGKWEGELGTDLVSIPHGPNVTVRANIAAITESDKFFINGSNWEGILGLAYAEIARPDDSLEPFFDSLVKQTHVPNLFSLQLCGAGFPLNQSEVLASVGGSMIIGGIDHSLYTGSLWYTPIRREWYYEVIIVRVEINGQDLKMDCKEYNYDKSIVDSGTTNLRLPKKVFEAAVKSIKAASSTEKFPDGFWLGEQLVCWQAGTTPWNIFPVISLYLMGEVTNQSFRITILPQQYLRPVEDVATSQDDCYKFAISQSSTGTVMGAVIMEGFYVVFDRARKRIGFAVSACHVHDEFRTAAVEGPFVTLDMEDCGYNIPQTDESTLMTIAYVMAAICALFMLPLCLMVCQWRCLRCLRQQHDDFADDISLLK

CC1(C)OCC(N)=N[C@](C)(c2cc(Nc3cncc(C(F)(F)F)c3)ccc2F)C1(F)F
IC50 (Beta-secretase 1): 1900 nM | IC50 (Beta-secretase 2): 3890 nM
